Results: patent US6407204B1 (priority 1997, dated 2002)
Entries after “also recorded” stand apart in the source; their conditions may differ.

Tests used:
NMDA receptor = conditions: literature, cited from earlier work; for motor impairment: relative to analgesic doses
Male Sprague-Dawley rats [1] = conditions: rat, in vivo
Male Sprague-Dawley rats [2] = conditions: rat, in vivo; remark: listed apart in the source
formalin test = conditions: literature; ifenprodil at a high dose; cited from earlier work
[3] = tested on: NMDA polyamine site, forebrain membrane preparations; conditions: cited from earlier work
[4] = tested on: cholinergic neurons of the QA lesioned striatum; conditions: rat, in vivo
[5] = tested on: GABAergic neurons of the QA lesioned striatum; conditions: rat, in vivo

For `C[C@]12N[C@H](Cc3ccccc31)c1ccccc12` [MK-801], the analgesic activity (NMDA receptor) is listed as “show analgesic activity”, the motor impairment (NMDA receptor) is listed as “show motor impairment at equivalent doses” and the “side effects at the dose attenuating phase II flinches” value (Male Sprague-Dawley rats [1]) is listed as “side effects, including head weaving”. The “toxicity at doses that decreased flinches” value (Male Sprague-Dawley rats [1]) was “clear toxicity”, the “dose required to inhibit / significantly attenuate phase II flinches” value (Male Sprague-Dawley rats [2]) was 30 µg and the “analgesic effect in the formalin test” value (formalin test) was “submaximal analgesic effect”.

In the case of `CC(C(O)c1ccc(O)cc1)N1CCC(Cc2ccccc2)CC1` (stereo not shown) [ifenprodil], the “analgesic effect in the formalin test” value (formalin test) is listed as “did not have an analgesic effect; also recorded: no effect”.

In the case of `c1ccc(C2(N3CCCCC3)CCCCC2)cc1` [phenylcyclidine (PCP), phenylcyclidine], the analgesic activity (NMDA receptor) is listed as “show analgesic activity” and the motor impairment (NMDA receptor) is listed as “show motor impairment at equivalent doses”.

For `NCCCNCCCCNCCCN` [spermine], the “maximal effective concentration for enhancement of [3H]MK-801 binding” value [3] is listed as “about 20 μM”.

For “Gly-Glu-Gla-Gla-Leu-Gln-Gla-Asn-Gln-Gla-Leu-Ile-Arg-Gla-Lys-Ser-Asn-NH2 [Conantokin G]”, the “QA lesion-induced loss of ChAT activity” value [4] was “completely blocked”, the “dose required to inhibit / significantly attenuate phase I flinches” value (Male Sprague-Dawley rats [2]) was 1.0 µg and the “dose required to inhibit / significantly attenuate phase II flinches” value (Male Sprague-Dawley rats [2]) was 0.05 µg. For the same compound, the “QA lesion-induced loss of GAD activity” value [5] was “completely blocked; also recorded: complete prevention”.

In the case of “Gly-Glu-Gla-Gla-Val-Ala-Lys-Met-Ala-Ala-Glu-Leu-Ala-Arg-Glu-Asn-Ile-Ala-Lys-Gly-Cys-Lys-Val-Asn-Cys-Tyr-Pro [Conantokin R]”, the “dose required to inhibit / significantly attenuate phase I flinches” value (Male Sprague-Dawley rats [2]) is reported as 3.3 µg and the “dose required to inhibit / significantly attenuate phase II flinches” value (Male Sprague-Dawley rats [2]) is reported as 3.3 µg.

In the case of β-endorphin, the overt side effects (Male Sprague-Dawley rats [1]) is reported as “overt signs of sedation and motor impairment”, the “dose at which maximal possible effect was observed, phase I” value (Male Sprague-Dawley rats [2]) is reported as 1.0 µg and the “dose at which maximal possible effect was observed, phase II” value (Male Sprague-Dawley rats [2]) is reported as 3.3 µg. For the same compound, the “dose required to inhibit / significantly attenuate phase I flinches” value (Male Sprague-Dawley rats [2]) was 0.3 µg, the “dose required to inhibit / significantly attenuate phase II flinches” value (Male Sprague-Dawley rats [2]) was 0.6 µg and the “effect of the single agent alone” value (Male Sprague-Dawley rats [2]) was “no effect”. For the same compound, the “effect on flinches in both phase I and phase II” value (Male Sprague-Dawley rats [2]) was “dose-dependent decrease in flinches”, the “effect on phase I flinches” value (Male Sprague-Dawley rats [2]) was “no effect” and the “effect on phase II flinches” value (Male Sprague-Dawley rats [2]) was “no effect”.
